Data on 20 compounds can be found in ChEMBL document CHEMBL1201862, “PubChem BioAssay data set” (2004).

Activity calls are given as the source filed them.

Assay [1] concerns the target Voltage-dependent T-type calcium channel subunit alpha-1H (Homo sapiens, UniProt O95180). Format: functional.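 Further: channel activity triggered by adding a high calcium stimulation buffer.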
Assay [2] in a line: NIH-3T3 fibroblast cytotoxicity, dose response, cytotoxicity control, cell-based, fluorescence, Alamar Blue, secondary assay (AID 2327).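 Further: NIH-3T3 mouse fibroblasts cultured with fluconazole at 8 µg/mL.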 Format: functional. (In general: Alamar Blue is a resazurin reagent that responds to reducing activity.)
A further assay concerns HEK293. Put plainly: inhibitors of LMP1-driven NF-kB reporter, dose response, cell-based, HEK293, luciferase, cherry-pick (AID 588343). Format: functional. The following applies: Homo sapiens.
The nature of assay [3]: C. albicans growth with fluconazole, confirmation, fluorescence, retest (AID 2467). The format is functional, cell-based.
The next assay deals with T1, Protein RecA (Mycobacterium tuberculosis, UniProt P9WHJ3).
T1 sequence (P9WHJ3 whole entry): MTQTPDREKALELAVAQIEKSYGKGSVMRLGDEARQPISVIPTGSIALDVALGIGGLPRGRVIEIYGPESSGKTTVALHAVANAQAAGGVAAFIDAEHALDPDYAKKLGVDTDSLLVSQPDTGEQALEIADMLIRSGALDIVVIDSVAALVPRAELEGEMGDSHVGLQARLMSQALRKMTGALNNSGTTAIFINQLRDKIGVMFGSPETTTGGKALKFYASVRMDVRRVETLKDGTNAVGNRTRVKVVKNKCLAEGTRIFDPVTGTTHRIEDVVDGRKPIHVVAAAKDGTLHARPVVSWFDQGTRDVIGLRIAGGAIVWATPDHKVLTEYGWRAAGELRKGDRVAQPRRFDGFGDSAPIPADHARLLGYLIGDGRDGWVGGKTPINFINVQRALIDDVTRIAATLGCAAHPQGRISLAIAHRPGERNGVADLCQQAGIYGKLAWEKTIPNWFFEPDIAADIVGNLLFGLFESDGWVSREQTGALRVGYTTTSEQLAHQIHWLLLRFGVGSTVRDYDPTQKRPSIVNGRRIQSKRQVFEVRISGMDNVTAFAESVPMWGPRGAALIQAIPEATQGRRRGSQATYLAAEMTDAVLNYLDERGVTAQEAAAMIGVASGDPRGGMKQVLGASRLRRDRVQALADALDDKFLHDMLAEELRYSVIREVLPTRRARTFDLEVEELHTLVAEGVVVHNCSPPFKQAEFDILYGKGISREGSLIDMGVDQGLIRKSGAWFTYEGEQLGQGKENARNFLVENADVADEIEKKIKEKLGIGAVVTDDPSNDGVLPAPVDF
Nature of the assay: Fluorescence Cell-Free Homogeneous Dose Retest to Identify Inhibitors of RecA-Intein Splicing Activity. [Related pubchem assays (depositor defined):AID2097, AID2223, AID489010, AID492950]. Format: functional.

Assay [4] addresses T2, Replicative DNA helicase DnaB (Mycobacterium tuberculosis, UniProt P9WMR3).
T2 sequence (P9WMR3 whole entry): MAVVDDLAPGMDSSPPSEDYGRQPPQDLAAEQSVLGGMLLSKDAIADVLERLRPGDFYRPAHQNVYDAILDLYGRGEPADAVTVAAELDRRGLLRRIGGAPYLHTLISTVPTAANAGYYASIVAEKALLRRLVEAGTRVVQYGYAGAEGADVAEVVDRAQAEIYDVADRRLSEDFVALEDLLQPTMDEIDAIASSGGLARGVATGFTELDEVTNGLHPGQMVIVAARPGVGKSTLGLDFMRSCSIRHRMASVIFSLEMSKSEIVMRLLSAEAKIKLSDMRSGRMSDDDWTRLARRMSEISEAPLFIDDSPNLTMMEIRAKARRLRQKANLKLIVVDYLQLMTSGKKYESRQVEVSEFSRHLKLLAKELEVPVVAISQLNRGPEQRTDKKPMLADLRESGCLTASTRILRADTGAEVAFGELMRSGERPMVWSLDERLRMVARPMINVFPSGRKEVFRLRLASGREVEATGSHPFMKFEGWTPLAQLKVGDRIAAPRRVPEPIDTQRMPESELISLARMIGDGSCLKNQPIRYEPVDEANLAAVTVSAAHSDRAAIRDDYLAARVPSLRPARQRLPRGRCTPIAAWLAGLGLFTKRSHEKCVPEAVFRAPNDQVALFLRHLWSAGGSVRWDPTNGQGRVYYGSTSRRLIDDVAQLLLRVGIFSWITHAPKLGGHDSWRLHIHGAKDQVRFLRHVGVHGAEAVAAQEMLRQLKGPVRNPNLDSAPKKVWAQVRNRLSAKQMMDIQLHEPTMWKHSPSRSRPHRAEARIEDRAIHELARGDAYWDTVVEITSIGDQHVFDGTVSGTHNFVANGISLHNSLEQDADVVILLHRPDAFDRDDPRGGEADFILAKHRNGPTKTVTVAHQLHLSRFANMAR
Nature of the assay: DnaB intein splicing inhibitors, dose response, biochemical, cell-free fluorescence (AID 449749). Format: functional.

The next assay has as its target Prothrombin (Homo sapiens, UniProt P00734). Nature of the assay: Thrombin 1536 HTS Dose Response Confirmation. [Related pubchem assays: 1046 (Thrombin 1536 HTS; hits were confirmed in this assay)]. Format: functional.
The nature of assay [5]: inhibitors of intracellular T. cruzi replication, confirmation, NIH3T3 host cells, beta-gal luminescence (AID 2044).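 Further: intracellular parasites grown in NIH/3T3 mouse fibroblasts as host cells; luminescent beta-galactosidase reporter signal from transgenic T. cruzi replicating inside host cells; inhibitors lower the luminescence signal.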 The format is functional, cell-based.
In another assay the test system is Streptococcus. Put plainly: Group A Streptococcus viability loss, dose response, counter-screen for streptokinase expression inhibitor project, luminescence, BacTiterGlo (AID 1915).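 Further: potency for reduction of bacterial viability or growth.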 Format: functional, organism-based. For orientation: Counterscreens check selectivity or assay interference.
Assay [6] is described as follows: Luminescence Cell-Based Dose Retest to Confirm Inhibitors of Cancer Stem Cells. [Related pubchem assays (depositor defined):AID2717, AID2721]. The format is functional. Particulars: Homo sapiens.
Assay [7] in a line: cytotoxicity toward NIH3T3 fibroblasts, dose response, counter-screen, cell-based, ATP luminescence, mouse fibroblasts (AID 2010).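 Further: cells exposed to compound for about 90 hours before reading.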 The format is functional.
In the next assay the target is T3, Streptokinase A (Streptococcus pyogenes serotype M1, UniProt P10520).
T3 sequence (P10520 whole entry): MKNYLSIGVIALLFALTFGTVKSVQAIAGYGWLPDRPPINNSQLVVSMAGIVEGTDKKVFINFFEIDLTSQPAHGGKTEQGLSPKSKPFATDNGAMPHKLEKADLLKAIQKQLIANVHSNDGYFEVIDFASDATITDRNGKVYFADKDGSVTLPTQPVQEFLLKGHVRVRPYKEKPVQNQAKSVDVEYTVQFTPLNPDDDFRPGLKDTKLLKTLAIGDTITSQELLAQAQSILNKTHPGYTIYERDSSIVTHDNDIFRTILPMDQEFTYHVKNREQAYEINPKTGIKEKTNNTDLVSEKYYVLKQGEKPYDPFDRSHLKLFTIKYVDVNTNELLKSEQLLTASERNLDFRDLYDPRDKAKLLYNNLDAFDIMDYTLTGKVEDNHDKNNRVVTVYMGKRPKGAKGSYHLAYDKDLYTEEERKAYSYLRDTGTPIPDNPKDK
Nature of the assay: S. pyogenes streptokinase expression inhibitors, potency, dose response, plasminogen activation absorbance, OD405 (AID 1914).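 Further: secreted streptokinase activity via plasminogen activation per viability signal from cell pellet.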 Format: functional, Streptococcus pyogenes M1 GAS.

For assay [8], the system named is Streptococcus sp. 'group A'. Put plainly: growth inhibition of control SK(-) GAS strain, dose response, counter-screen for streptokinase expression inhibitor project, luminescence, kanamycin, BacTiterGlo, confirmation (AID 1900). Format: functional, organism-based.
A further assay concerns the target Nonstructural protein 1 (Influenza A virus, UniProt Q194T2). The format is functional, Influenza A virus (A/California/07/2009(H1N1)).
Assay [9] can be described thus: growth suppression of beta-catenin-knockout colon cells, dose response, cell-based, HCT116, human colon tumor (AID 1045).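 Further: HCT116 colon tumor cells with beta catenin knocked out; cells exposed to compound for 60 hours.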 Format: functional.
Assay [10] can be described thus: growth suppression of PTEN-null colon cells, dose response, cell-based, HCT116 PTEN knockout (AID 1047).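 Further: HCT116 colon tumor cells with PTEN knocked out; cells exposed to compound for 60 hours before readout; potency for loss of cell viability measured by luminescence.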 Format: functional.
Assay [11] concerns the target T4, DNA repair and recombination protein RAD54-like (Homo sapiens, UniProt Q92698).
T4 sequence (Q92698 whole entry): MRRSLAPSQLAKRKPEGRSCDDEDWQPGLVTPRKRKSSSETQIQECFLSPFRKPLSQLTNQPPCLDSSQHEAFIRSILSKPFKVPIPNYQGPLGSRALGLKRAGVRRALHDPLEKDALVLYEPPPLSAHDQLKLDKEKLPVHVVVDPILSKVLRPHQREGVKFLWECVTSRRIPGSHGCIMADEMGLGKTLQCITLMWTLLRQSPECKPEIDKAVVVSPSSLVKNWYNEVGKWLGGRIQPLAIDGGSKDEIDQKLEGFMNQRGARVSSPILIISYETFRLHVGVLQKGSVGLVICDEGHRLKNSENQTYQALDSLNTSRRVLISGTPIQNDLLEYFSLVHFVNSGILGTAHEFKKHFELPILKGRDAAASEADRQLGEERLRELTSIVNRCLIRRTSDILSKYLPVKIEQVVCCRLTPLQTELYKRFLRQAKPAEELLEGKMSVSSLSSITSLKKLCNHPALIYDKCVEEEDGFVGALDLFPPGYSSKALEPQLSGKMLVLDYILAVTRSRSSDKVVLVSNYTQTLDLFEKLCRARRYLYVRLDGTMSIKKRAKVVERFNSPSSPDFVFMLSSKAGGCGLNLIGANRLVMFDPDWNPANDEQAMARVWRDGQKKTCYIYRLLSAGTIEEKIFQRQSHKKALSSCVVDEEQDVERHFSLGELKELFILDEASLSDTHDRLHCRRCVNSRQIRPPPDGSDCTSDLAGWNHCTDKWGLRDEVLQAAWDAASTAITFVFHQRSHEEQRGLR
Nature of the assay: inhibitors of human RAD54 branch migration, confirmation, biochemical, fluorescence, cherry-picked samples, dose series (AID 651657). The format is functional.

Assay [12] addresses T5, DNA repair protein RAD52 homolog (Homo sapiens, UniProt P43351).
T5 sequence (P43351 whole entry): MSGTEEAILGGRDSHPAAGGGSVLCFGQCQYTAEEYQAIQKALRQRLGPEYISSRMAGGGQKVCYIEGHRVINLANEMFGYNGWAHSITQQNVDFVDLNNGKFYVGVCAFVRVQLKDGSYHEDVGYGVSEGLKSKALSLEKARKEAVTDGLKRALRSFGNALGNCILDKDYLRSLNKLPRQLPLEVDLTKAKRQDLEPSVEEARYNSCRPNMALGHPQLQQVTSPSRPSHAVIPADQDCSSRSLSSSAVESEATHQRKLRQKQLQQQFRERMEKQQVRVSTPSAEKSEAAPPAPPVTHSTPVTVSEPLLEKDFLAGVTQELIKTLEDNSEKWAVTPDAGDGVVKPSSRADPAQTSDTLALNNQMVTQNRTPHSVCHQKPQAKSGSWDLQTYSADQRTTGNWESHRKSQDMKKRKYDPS
Format: functional, biochemical.

Sequence of Voltage-dependent T-type calcium channel subunit alpha-1H (O95180 whole entry): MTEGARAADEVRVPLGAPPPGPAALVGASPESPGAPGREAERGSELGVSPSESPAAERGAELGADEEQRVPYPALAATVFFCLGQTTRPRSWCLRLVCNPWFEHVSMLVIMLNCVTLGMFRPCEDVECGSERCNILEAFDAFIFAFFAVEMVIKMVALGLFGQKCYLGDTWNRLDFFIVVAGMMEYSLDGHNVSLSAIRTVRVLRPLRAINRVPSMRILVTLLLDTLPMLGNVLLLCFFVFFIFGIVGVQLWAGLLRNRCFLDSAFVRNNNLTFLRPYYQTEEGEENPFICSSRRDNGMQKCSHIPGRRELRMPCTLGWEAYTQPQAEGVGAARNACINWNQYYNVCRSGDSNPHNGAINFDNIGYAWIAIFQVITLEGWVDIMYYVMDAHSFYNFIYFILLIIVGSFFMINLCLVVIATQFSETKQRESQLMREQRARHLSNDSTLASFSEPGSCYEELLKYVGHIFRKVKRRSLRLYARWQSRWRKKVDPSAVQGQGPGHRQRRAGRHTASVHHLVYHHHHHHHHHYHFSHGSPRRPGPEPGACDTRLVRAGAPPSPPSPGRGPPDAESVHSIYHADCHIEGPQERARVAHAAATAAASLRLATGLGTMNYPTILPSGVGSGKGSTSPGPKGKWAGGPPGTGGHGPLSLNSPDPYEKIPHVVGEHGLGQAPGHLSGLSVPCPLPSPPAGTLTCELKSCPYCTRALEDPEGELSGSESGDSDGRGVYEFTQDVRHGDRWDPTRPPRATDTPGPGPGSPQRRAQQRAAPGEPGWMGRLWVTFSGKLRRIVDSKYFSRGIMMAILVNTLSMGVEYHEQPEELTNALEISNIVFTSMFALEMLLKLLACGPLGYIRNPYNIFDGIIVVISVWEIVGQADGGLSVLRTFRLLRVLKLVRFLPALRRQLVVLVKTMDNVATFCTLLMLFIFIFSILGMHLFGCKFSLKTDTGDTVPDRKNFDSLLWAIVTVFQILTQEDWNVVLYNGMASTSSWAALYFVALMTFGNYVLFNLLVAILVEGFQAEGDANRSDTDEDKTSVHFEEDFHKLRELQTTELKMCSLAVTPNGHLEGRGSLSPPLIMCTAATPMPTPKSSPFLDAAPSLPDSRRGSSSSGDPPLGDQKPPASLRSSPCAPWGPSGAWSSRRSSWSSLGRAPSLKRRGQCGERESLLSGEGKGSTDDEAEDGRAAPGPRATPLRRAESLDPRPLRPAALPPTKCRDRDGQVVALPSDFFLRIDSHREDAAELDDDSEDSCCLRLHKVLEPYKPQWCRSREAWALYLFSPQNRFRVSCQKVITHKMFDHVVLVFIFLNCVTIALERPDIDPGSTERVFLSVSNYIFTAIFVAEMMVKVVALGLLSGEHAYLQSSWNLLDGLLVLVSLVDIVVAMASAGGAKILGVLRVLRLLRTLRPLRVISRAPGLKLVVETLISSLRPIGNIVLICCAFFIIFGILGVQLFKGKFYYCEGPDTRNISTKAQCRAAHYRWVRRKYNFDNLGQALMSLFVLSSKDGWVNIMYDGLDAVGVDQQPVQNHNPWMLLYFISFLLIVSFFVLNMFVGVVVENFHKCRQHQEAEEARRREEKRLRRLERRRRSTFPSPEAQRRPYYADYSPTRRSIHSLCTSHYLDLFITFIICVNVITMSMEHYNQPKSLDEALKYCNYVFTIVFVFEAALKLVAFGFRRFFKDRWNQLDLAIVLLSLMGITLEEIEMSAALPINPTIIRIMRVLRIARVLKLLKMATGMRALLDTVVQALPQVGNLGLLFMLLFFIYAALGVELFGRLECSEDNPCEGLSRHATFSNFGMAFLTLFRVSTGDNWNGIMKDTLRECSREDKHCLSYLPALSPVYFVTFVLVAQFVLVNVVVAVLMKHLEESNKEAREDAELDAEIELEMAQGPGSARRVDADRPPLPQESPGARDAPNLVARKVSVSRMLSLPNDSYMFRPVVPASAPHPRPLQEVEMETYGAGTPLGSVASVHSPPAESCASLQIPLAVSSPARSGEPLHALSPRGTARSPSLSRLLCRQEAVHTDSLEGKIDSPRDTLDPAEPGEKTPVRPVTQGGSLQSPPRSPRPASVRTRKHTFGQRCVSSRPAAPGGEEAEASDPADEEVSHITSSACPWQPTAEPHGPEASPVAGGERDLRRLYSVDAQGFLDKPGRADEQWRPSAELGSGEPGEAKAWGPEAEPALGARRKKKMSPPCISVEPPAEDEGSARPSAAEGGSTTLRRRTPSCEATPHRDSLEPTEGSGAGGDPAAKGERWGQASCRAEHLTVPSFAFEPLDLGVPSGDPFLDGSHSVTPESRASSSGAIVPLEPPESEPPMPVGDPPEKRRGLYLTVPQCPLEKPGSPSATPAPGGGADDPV
Sequence of Nonstructural protein 1 (Q194T2 whole entry): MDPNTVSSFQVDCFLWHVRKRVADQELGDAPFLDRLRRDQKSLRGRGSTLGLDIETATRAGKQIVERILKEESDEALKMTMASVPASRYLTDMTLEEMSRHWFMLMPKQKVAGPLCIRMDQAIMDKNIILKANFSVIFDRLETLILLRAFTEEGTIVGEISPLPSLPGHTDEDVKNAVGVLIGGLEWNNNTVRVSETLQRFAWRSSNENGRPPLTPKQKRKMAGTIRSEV

The term EC50 denotes the concentration that produces a half-maximal response. In the case of `Cc1ccc(-c2nnn(CC(=O)N(c3ccccc3F)C(CC(C)C)C(=O)NCC3CCCO3)n2)cc1` (stereo not given), the EC50 in assay [1] is 5.3 µM (active).

For `O=C(Nc1nc2ccccc2s1)C1CCCN1S(=O)(=O)c1ccc(Cl)cc1` (stereo not given), in assay [1], the EC50 was 5.86 µM (active).

As usually defined, the AC50 is the concentration giving half of the maximal activity seen. Take `C=CCn1c(O)c(N=NC(S)=Nc2ccccc2C)c2cc(S(=O)(=O)N3CCOCC3)ccc21`: the EC50 is 20.4 µM (inconclusive) in assay [2] and 2.06 µM (active) in assay [3]. Further, the AC50 in the assay on HEK293 was 2.93 µM (active).

Broadly, the IC50 is the point on the concentration scale where inhibition reaches its midpoint. Regarding `COc1cccc(C(=O)Nc2n[nH]c(SCc3ccc(Cl)cc3)n2)c1`, the half-maximal effective concentration (EC50) on Protein RecA was 1.29 µM (active). For the same compound, the AC50 in [4] was 2.78 µM (active). In addition, the IC50 on Prothrombin is 2.94 µM (active).

On to `CC(=O)c1ccc(O)c(CSC2=NCCS2)c1`, for which, on Prothrombin, the IC50 was > 50 µM (not active).

In the case of `O=C(CCC1COc2ccccc2O1)Nc1ccc(Cl)cn1` (stereo not given), the EC50 in assay [1] was 2.94 µM (active).

For `S=C(NCC1CCCCC1)Nc1ccc(Oc2ccccc2)cc1`, the EC50 was 2.05 µM (active) in [5]; 24.3 µM (active) in the assay on Streptococcus; > 60 µM (not active) in assay [7]; 4.05 µM (active) at Streptokinase A; 10.9 µM (active) in [8]. For the same compound, the AC50 in assay [6] is 4.58 µM (active); with HEK293, 170 µM (active).

As to `O=C(Nc1nc(-c2cccs2)cs1)c1ccco1`, the concentration for half-maximal inhibition (IC50) against Prothrombin is > 50 µM (not active).

As for `COc1ccc(C(C(O)C(=O)c2c[nH]c3ccccc23)N2CCN(c3ccccc3)CC2)cc1` (stereo not given), the EC50 in assay [1] was 8.16 µM (active).

`Clc1ccc(-c2cnnc(-c3ccccn3)n2)cc1`: the IC50 at Nonstructural protein 1 was 14.2 µM (active).

Regarding `CCCC(=O)n1nc(-c2ccc(Cl)cc2)nc1SC`, the IC50 at Prothrombin was 3.57 µM (active).

Take `O=C(Nc1cc(C(F)(F)F)cc(C(F)(F)F)c1)c1ccc(Cn2cc(C(F)(F)F)ccc2=O)cc1`: the EC50 in assay [1] is 5.74 µM (active).

As for `O=[N+]([O-])c1nn(-c2ccc3c(c2)OCCO3)[n+]([O-])c1NC1CCCCCC1`, the figures for the concentration for a half-maximal effect (EC50) in assay [5] and in assay [7] were 0.681 µM (active) and > 30 µM (not active), respectively. The IC50 at Nonstructural protein 1 is 44.6 µM (active).

Regarding `N#Cc1ccc(-c2ccc(F)cc2)nc1Sc1ccc(F)cc1`, the figures for the EC50 in [9] and in [10] were 28.7 µM (active) and 20.6 µM (active), respectively.

For `O=C1C=C(O)c2c(O)cccc2C1=O`, the IC50 against Prothrombin was > 50 µM (not active).

Turning to `COc1ccc(CNc2nc(-c3cccnc3)nn2C(C)=O)cc1`, the IC50 on Prothrombin is 0.0252 µM (active).

Regarding `Cc1nc(SCC(=O)c2cc3ccccc3oc2=O)c(C#N)c(-c2ccccc2)c1C(=O)Nc1ccccc1`, the EC50 is 7.01 µM (active) in assay [9] and 8.4 µM (active) in assay [10].

Turning to `CN(C)CCCNc1nc2cc(-c3ccc4c(ccn4C)c3)sc2c(=O)n1C`, the figures for the AC50 in [11] and in assay [12] were 28.7 µM (active) and 4.02 µM (active), respectively.

Regarding `COc1ccc(/C=C2\SC(=O)N(CCCC(=O)Nc3ccc(C(=O)O)cc3)C2=O)cc1`, in the assay on HEK293, the AC50 was 2.37 µM (active).

Take `CCCc1c(C(=O)N/N=C(\C)c2ccccn2)nnn1-c1nonc1N`: the AC50 in the assay with HEK293 is 9.69 µM (active).
